Assays:
Assay in all cases: differential drug sensitivity score (dDSS) relative to sarcoma reference cohort mean DSS (DSS units (0-100 scale difference)); higher = more selective sensitivity than reference sarcomas
Settings in all cases: exposure time: 72 h; concentration range: 10-10000 nM
CDS-ZH001-2 = tested on: CDS-ZH001-2 (patient-derived CIC-DUX4 sarcoma tumoroid)
Procedure: (§1)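 Drug response profiling of patient-derived Ewing sarcoma and CIC::DUX4 sarcoma tumoroid models (or cells tested directly after isolation from the tumor, 'direct'). The DSS is the normalised AUC (0-100); dDSS is the sample DSS minus the mean DSS of a 34-sarcoma reference cohort profiled in the same lab.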

CDS-ZH001 = tested on: CDS-ZH001 (patient-derived CIC-DUX4 sarcoma tumoroid)
Procedure: as §1

CDS-ZH002 direct = tested on: CDS-ZH002 direct (CIC-DUX4 sarcoma cells right after isolation)
Procedure: as §1

CDS-ZH002 = tested on: CDS-ZH002 (patient-derived CIC-DUX4 sarcoma tumoroid)
Procedure: as §1

CDS-ZH003 = tested on: CDS-ZH003 (patient-derived CIC-DUX4 sarcoma tumoroid)
Procedure: as §1

ES-ZH001 = tested on: ES-ZH001 (patient-derived Ewing sarcoma tumoroid)
Procedure: as §1

ES-ZH002 = tested on: ES-ZH002 (patient-derived Ewing sarcoma tumoroid)
Procedure: as §1

ES-ZH004 = tested on: ES-ZH004 (patient-derived Ewing sarcoma tumoroid)
Procedure: as §1

ES-ZH007 = tested on: ES-ZH007 (patient-derived Ewing sarcoma tumoroid)
Procedure: as §1

ES-ZH008 = tested on: ES-ZH008 (patient-derived Ewing sarcoma tumoroid)
Procedure: as §1

ES-ZH009 = tested on: ES-ZH009 (patient-derived Ewing sarcoma tumoroid)
Procedure: as §1

ES-ZH016 direct = tested on: ES-ZH016 direct (Ewing sarcoma cells right after isolation)
Procedure: as §1

ES-ZH016 = tested on: ES-ZH016 (patient-derived Ewing sarcoma tumoroid)
Procedure: as §1

SMILES | differential drug sensitivity score (CDS-ZH001-2) | differential drug sensitivity score (CDS-ZH001) | differential drug sensitivity score (CDS-ZH002 direct) | differential drug sensitivity score (CDS-ZH002) | differential drug sensitivity score (CDS-ZH003) | differential drug sensitivity score (ES-ZH001) | differential drug sensitivity score (ES-ZH002) | differential drug sensitivity score (ES-ZH004) | differential drug sensitivity score (ES-ZH007) | differential drug sensitivity score (ES-ZH008) | differential drug sensitivity score (ES-ZH009) | differential drug sensitivity score (ES-ZH016 direct) | differential drug sensitivity score (ES-ZH016)
O=C(c1ccc(F)c(F)c1Nc1ccc(I)cc1F)N1CC(O)([C@@H]2CCCCN2)C1 [Cobimetinib] | -5.7 | -5.4 | -3.5 | -6.7 | -6.7 | 1.4 | 2.5 | 0 | -3 | -6.2 | -4.5 | -3.5 | -3.8
Cc1sc2c(c1C)C(c1ccc(Cl)cc1)=N[C@@H](CC(=O)Nc1ccc(O)cc1)c1nnc(C)n1-2 [Birabresib] | 1 | -1.1 | 1.5 | -11.1 | -0.8 | -5.6 | 0.3 | -6.7 | -4.1 | 5.9 | 11.9 | 11.1 | -7.9
CN1C(=O)N[C@H](Cc2c[nH]c3c(Cl)cccc23)C1=O [Necrostatin-2] | 8.4 | -2.7 | -2.5 | -1.9 | -2.7 | -1 | 2.2 | 7.5 | -2.7 | 13.8 | -2.7 | 15.6 | -1.3
CC(C)(C)c1nc(-c2cccc(NS(=O)(=O)c3c(F)cccc3F)c2F)c(-c2ccnc(N)n2)s1 [Dabrafenib] | -1.2 | -1.2 | -1.2 | -1.2 | -1.2 | 11.1 | 7.7 | -0.7 | -1.1 | 0.8 | 3.9 | 2.3 | -1.2
C=CCn1c(=O)c2cnc(Nc3ccc(N4CCN(C)CC4)cc3)nc2n1-c1cccc(C(C)(C)O)n1 [Adavosertib] | 5.3 | 4.9 | -2.6 | 3 | 4.9 | 8.1 | 12 | 0.2 | 4 | 7.6 | 10.9 | 8.1 | 2.8
Nc1ccn([C@@H]2O[C@H](CO)[C@@H](O)[C@@H]2O)c(=O)n1 [Cytarabine] | 3.3 | -12.4 | -8.5 | 1.3 | 0.8 | 8.3 | 21.1 | 4.4 | 17 | 22.9 | -6.1 | 11.6 | 12.5
CCC[C@H](NC(=O)/C(C#N)=C/c1cccc(Br)n1)c1ccccc1 [Degrasyn] | -1.4 | -1.4 | -1.4 | -1.1 | 0.7 | -1.4 | 4.8 | -1.1 | -1.4 | 0.7 | -1.4 | -0.2 | -0.8
Nc1ccccc1NC(=O)c1ccc(CNC(=O)OCc2cccnc2)cc1 [Entinostat] | 0.5 | -4.9 | 1.3 | -3 | -2.1 | 0.2 | 4.9 | 7.1 | 5.5 | 5.6 | 2.1 | 5.6 | -0.2
Cn1c(=O)n(-c2ccc(C(C)(C)C#N)cc2)c2c3cc(-c4cnc5ccccc5c4)ccc3ncc21 [Dactolisib] | 1.3 | 3.3 | 1.1 | -0.4 | 3.4 | 3 | 5 | 1 | 1.5 | -0.5 | 13.6 | -7.5 | -2.5
CS(=O)(=O)CCNCc1ccc(-c2ccc3ncnc(Nc4ccc(OCc5cccc(F)c5)c(Cl)c4)c3c2)o1 [Lapatinib] | -0.5 | -0.7 | -0.7 | -0.7 | -0.7 | -0.7 | 0.3 | -0.7 | -0.7 | -0.7 | -0.7 | -0.5 | -0.7
O=C(/C=C\n1cnc(-c2cc(C(F)(F)F)cc(C(F)(F)F)c2)n1)NNc1ccccn1 [Verdinexor] | 7.9 | 0.6 | 0 | -3.6 | -13 | 3.4 | 11 | 8.4 | 1.5 | 17.7 | -3.2 | 3.7 | 0.1
CN1CCN(CCOc2cc(OC3CCOCC3)c3c(Nc4c(Cl)ccc5c4OCO5)ncnc3c2)CC1 [Saracatinib] | 0.9 | 0.3 | 4.3 | -0.5 | -1.5 | -0.7 | 5.6 | 2.9 | -2.3 | 5.7 | -2.8 | 2.3 | -1.7
CC(=O)O[C@@]12CO[C@@H]1C[C@H](O)[C@@]1(C)C(=O)[C@H](O)C3=C(C)[C@@H](OC(=O)[C@H](O)[C@@H](NC(=O)OC(C)(C)C)c4ccccc4)C[C@@](O)([C@@H](OC(=O)c4ccccc4)[C@H]21)C3(C)C [Docetaxel] | 6.8 | -0.1 | 2 | -3.2 | -20.9 | 24.4 | 23.8 | 5.9 | 5.3 | 11.4 | 26.8 | 17.1 | 20
Nc1ncc(-c2nc(N3CCOCC3)nc(N3CCOCC3)n2)c(C(F)F)n1 [PQR514] | 7 | 3.9 | -2.6 | -6.5 | -0.5 | -3.3 | 15.5 | 0.8 | -1.3 | 10.1 | 7.1 | 5.4 | 5
C[C@]1(O)C[C@@H](c2nc(-c3ccc4ccc(-c5ccccc5)nc4c3)c3c(N)nccn32)C1 [Linsitinib] | 5.7 | 3.8 | -5.9 | -5 | 5.7 | 0.8 | 15.2 | 3.2 | 3 | 4.9 | 3.7 | 3.2 | 6.8
CCn1c(-c2nonc2N)nc2cnc(Oc3cccc(NC(=O)c4ccc(OCCN5CCOCC5)cc4)c3)cc21 | 1.1 | -2.7 | -2.4 | -2.9 | -1.3 | 1.8 | 4.5 | -2.6 | -2.1 | -2.1 | 6.5 | -1.7 | 2
CCN(c1cc(C#CCN2CCOCC2)cc(C(=O)NCc2c(C)cc(C)[nH]c2=O)c1C)[C@H]1CC[C@H](N(C)CCOC)CC1 | -0.9 | -1.4 | -1.2 | -0.7 | -1.4 | 3.1 | 2.8 | -1.4 | -1.4 | 0.2 | -1.4 | -1.4 | -1.4
Cc1[nH]c2ccccc2c1CCNCc1ccc(/C=C/C(=O)NO)cc1 [Panobinostat] | 4.9 | -2.7 | 2 | -1.1 | -3.6 | 3.6 | 4 | 5.4 | 6.3 | 6.6 | 10.3 | 7.4 | 6.6
CO[C@H]1C[C@@H]2CC[C@@H](C)[C@@](O)(O2)C(=O)C(=O)N2CCCC[C@H]2C(=O)O[C@H]([C@H](C)C[C@@H]2CC[C@@H](OC(=O)C(C)(CO)CO)[C@H](OC)C2)CC(=O)[C@H](C)/C=C(\C)[C@@H](O)[C@@H](OC)C(=O)[C@H](C)C[C@H](C)/C=C/C=C/C=C/1C [Temsirolimus] | 4 | 0.8 | 4.8 | -7 | 2.1 | 6.2 | 15.8 | 8.3 | 5.9 | 3.1 | 11.1 | -6.2 | -3
CCNC(=O)c1noc(-c2cc(C(C)C)c(O)cc2O)c1-c1ccc(CN2CCOCC2)cc1 [Luminespib] | 2.1 | 4.1 | -3.8 | -9.4 | 2.7 | 3.5 | 10.5 | 1.2 | 3.7 | 7.8 | 6.6 | 8.1 | 2.2
O=[P@]1(N(CCCl)CCCl)N[C@H](OO)CCO1 [Hydroperoxycyclophosphamide] | -2.3 | -0.7 | -3.6 | -3.6 | -4.1 | 1.7 | 7.7 | 6.4 | 0.2 | 6.5 | -1 | 4.6 | 2.2
CC[C@@H]1C(=O)N(C)c2cnc(Nc3ccc(C(=O)NC4CCN(C)CC4)cc3OC)nc2N1C1CCCC1 [BI-2536] | 1.7 | -0.7 | -8 | 2.2 | -10 | 21.6 | 19 | 2.9 | 6.1 | 2.3 | 19.6 | 13.4 | 17.6
CC(C)C[C@H](NC(=O)CNC(=O)c1cc(Cl)ccc1Cl)B(O)O [Ixazomib] | 3.6 | 9.5 | 9.9 | 1.8 | 3.2 | 5.2 | 4.9 | 3.5 | 4.9 | 0.7 | 7.6 | -2.2 | -2.9
O=C(c1cc(Cc2n[nH]c(=O)c3ccccc23)ccc1F)N1CCN(C(=O)C2CC2)CC1 [Olaparib] | -2 | -3.8 | -5.3 | -5.3 | -5.3 | 8.4 | 15 | 11.2 | 4 | 10.3 | -0.2 | 11.3 | 7.1
N[C@@H](Cc1ccc(N(CCCl)CCCl)cc1)C(=O)O [Melphalan] | -1.7 | -1.7 | -1.7 | -1.7 | -1.7 | -1 | 7 | 4.3 | -1.7 | 2.7 | -1.3 | 4 | 3.5
CC(C)NC[C@@H](C(=O)N1CCN(c2ncnc3c2[C@H](C)C[C@H]3O)CC1)c1ccc(Cl)cc1 [Ipatasertib] | 2 | 7.6 | -3.2 | -0.8 | 8.9 | -3.2 | 10.2 | 3.9 | 1.3 | 6.6 | 2.4 | -3.9 | -0.5
Oc1nc(-c2ccc(C(F)(F)F)cc2)nc2c1CSCC2 [XAV-939] | 3.9 | -2.2 | 4.3 | 1.6 | 7.7 | -2.2 | -1.2 | -2.2 | -1.4 | -2.2 | -0.6 | 3.7 | 2.7
Fc1cc(-c2cccc3ncc(-c4cnn(C5CCNCC5)c4)nc23)cc(F)c1CN1CCOCC1 [BSK805] | 1.9 | 2.5 | 0.1 | -2.6 | 2.6 | -0.1 | 3.2 | 1.4 | 2.8 | 2.9 | 1.7 | 3 | 2.5
CN1CC[C@@H](NC(=O)Nc2ccc(C#N)cc2)C[C@@H]1c1nc2ccccc2[nH]1 [Glasdegib] | -0.8 | -0.8 | -0.8 | -0.8 | 2.5 | -0.8 | 1.3 | -0.8 | -0.8 | -0.8 | -0.8 | -0.8 | -0.8

Reference: the supplement of paper PMC12370961
